# Key:
# [1] = test system: p53; assay: p53 activation assay, p53 responsive luciferase reporter cell line; type: cell-based, human; details: Homo sapiens, 16 h, HT1080-L or RCC45ConALuc reporter cells, 16 h; read-out: EC50 value (p53 activation)
# Experimental: The potency of a present carbazole compound is determined by measuring an ability of the compound to inhibit NF-κB activity or to activate p53. […] Theoretically, such assays of the dose-response effect of activator compounds can be described as a sigmoidal curve expressing a degree of activation as a function of concentration. The curve also theoretically passes through a point at which the concentration is sufficient to increase activity to a level that is 50% that of the difference between a baseline and the maximal activity in the assay. […] Determination of an EC50 value is made using conventional biochemical (acellular) assay techniques or cell-based assay techniques.
# The potency of a carbazole compound is determined by measuring an ability of the compound to activate p53.
# The p53 activation assay for determination of the EC50 value was performed as follows:
# HT1080-L (human fibrosarcoma cells with ConALuc reporter)
# RCC45ConALuc (human renal cell carcinoma cell line with ConALuc reporter)
# 1. Two types of standard cells were used, either HT1080-L or RCC45ConALuc cells. Both cell lines stably express a p53 responsive luciferase reporter construct.
# 2. HT1080-L cells were grown in DMEM medium containing 10% FBS. RCC45ConALuc cells were grown in RPMI medium containing 10% FBS (Pen/Strep can be added to a final concentration of 1%, if desired). Both cell lines were grown in a humidified incubator at 37° C. with 5% CO2. For normal culturing, both cell lines were split using 1× trypsin-EDTA at a ratio of 1:20 for HT1080-L and 1:5 for RCC45ConALuc cells every 3-4 days (when cells are 80-90% confluent).
# 3. A day before the experiment, the cells are trypsinized for about 5 minutes in 1× tripsin/EDTA solution in 37° C. incubator and plated in 96 well plates. HT1080-L cells were seeded at a density of 1×10^4/well in standard DMEM medium in a volume of 50 μl. RCC45ConALuc were seeded at a density of 2×10^4/well in the volume of 50 uL in standard RPMI medium.
# 4. The next day, various carbazole compounds were prepared by dilution of stock solutions in standard DMEM medium such that the cells were treated with the final chemical concentrations in Table 1 below. Stock solutions were made up in DMSO. Typically, chemicals were made up as 20 mM stock solutions.
# 5. Each tested compound used two rows of a 96-well plate, thus four compounds (e.g., W, X, Y, Z) were tested in one plate simultaneously. In addition to test compounds, each plate included positive and negative controls. As positive control, 9aa was used at a dose of 3 μM. As a negative control, DMSO was used in final concentration 0.1%.
# 1. Dilutions of chemicals added to the plate were made up as 2× concentrations in standard DMEM and added to corresponding well in a volume of 50 μl.
# 2. Chemicals were diluted in standard DMEM by two time serial dilutions starting from 40 μM (2× of highest concentration, e.g., 20 μM). For one cell line, the minimum volume was 125 μL of 2× working solution of chemical of each concentration in standard DMEM.
# 4. Sixteen hours following compound addition, all wells with the highest concentrations of compounds are checked microscopically for the presence of toxic effect, because death of cells caused by compounds may not allow detecting luciferase activity. If cytotoxocity is evident, other doses of the same compounds were checked for the presence of toxicity. The lowest dose causing toxic effect was recorded.
# 5. After microscopic examination, 15 μl of Bright Glo luciferase assay system were added to each well and after 5 min incubation at RT, the plates were read on a 96 well plate luminometer with a measurement time of 0.1 sec. A shaking step was included before measurement.
# 6. The folds of luciferase activation for each concentration of each chemical were calculated by dividing the detected luciferase activity at each chemical concentration by the average of the luciferase activity for the DMSO control on the same plate.
# [2] = test system: γH2AX; assay: γH2AX staining (Table I); type: cell-based
# [3] = test system: ATM/ATR; assay: ATM/ATR activation (Table I); type: cell-based
# [4] = test system: Chk1/2; assay: Chk1/2 phosphorylation (Table I); type: cell-based
# [5] = test system: Topo II; assay: Topo II inhibition in cells (Table I); type: cell-based
# [6] = test system: Topo II; assay: Topo II inhibition in vitro (Table I); type: biochemical
# [7] = test system: thirteen cancer cell lines; assay: relative cell survival of cancer cell lines, methylene blue staining (FIG. 11); type: cell-based; details: 24 hours treatment, then compound-free medium
# Experimental: FIG. 11 contains plots of concentration of Compound 100 (μM) vs. relative cell survival for thirteen cancer cell lines showing that a present carbazole compound is an effective agent against numerous types of cancer;
# Each of the cell lines presented in FIG. 11 was seeded into 96 well plates. The next day, cells were treated with a range of concentrations of Compound 100. Treatment occurred for 24 hours, at which time compound-filled medium was replaced with compound-free medium and cells were allowed to grow until the control wells, which were treated with only vehicle control (DMSO), reached a monolayer (typically within 48 hours). Cells then were fixed and stained with 0.5% methylene blue in 50% methanol. The dye was eluted with 1% SDS and the absorbance measured at 650 nm. Data is presented as the absorbance at 650 nm versus the concentration of Compound 100.
# [8] = Ames test
smiles,measurement,setting,value
CCN(CC)CCn1c2ccc([N+](=O)[O-])cc2c2cc([N+](=O)[O-])ccc21 [Compound 100],EC50,[1],1300 nM
same,γH2AX staining,[2],no
same,ATM/ATR activation,[3],no
same,Chk1/2 phospho,[4],no
same,Topo II inhibition in cells,[5],no
same,Topo II inhibition in vitro,[6],ligation
same,anti-cancer activity against tested cancer cells,[7],significant anti-cancer activity
same,Ames test,[8],negative
